Reference: patent US20130011479A1, “DOUBLE-LAYER PHARMACEUTICAL FORMULATIONS CONTAINING OPIOID AGONISTS AND ANTAGONISTS” (L. MOLTENI & C. DEI FRATELLI ALITTI SOCIETA' DI ESERCIZIO …, priority 2010, published 2013)

Legend:
[1] = Intrathecal screening of patients treated with opioids: adverse events / side-effects monitored at several time points; type: in vivo; set-up: key to vertigo / vomiting / pruritus / nausea / numbness / side-effects (grade printed beside morphine) / drowsiness / constipation / loss of appetite / urinary retention / sweating: (0) = none; (1) = mild; (2) = moderate; (3) = intense; (4) = severe
Method: (§1) A dose of opioids was administered with or without naltrexone and the adverse events or side-effects and anti-nociceptive effects were monitored at several time points.
(§2) In particular, patients with chronic (non-oncological) spinal pain and oncological patients in the non-terminal phase with evidence of side effects after minimum doses of opioids were monitored.

[2] = Intrathecal screening of patients treated with opioids: anti-nociceptive effects (Efficacy) monitored at several time points; type: in vivo
Method: Patients being treated with opioids underwent intrathecal screening, in which the evidence of side effects is extremely significant.
as §1, §2

[3] = Algoneurodystrophy, 2 h, without naltrexone
[4] = Back pain, 1 h, without naltrexone
[5] = Back pain, 2 h, without naltrexone
[6] = Back pain, 4 h, without naltrexone
[7] = Back pain, 24 h, without naltrexone
[8] = Cancer of the pancreas, without naltrexone
[9] = Diabetes mellitus type II, without naltrexone
[10] = Lumbago, 4 h, without naltrexone
[11] = Lumbago, 6 h, without naltrexone
[12] = Lumbago, 8 h, without naltrexone
[13] = Lumboischialgia in diabetic patients (VAS 6-7), without naltrexone
[14] = Lumboischialgia, without naltrexone
[15] = Lumbosacral spondylitis without myelopathy, 2 h-4 h, without naltrexone
[16] = Multiple sclerosis, without naltrexone
[17] = Nonspecific coccyx disorders, 6 h, without naltrexone
[18] = Persistent pain syndrome, without naltrexone
[19] = Right lumboischialgia, without naltrexone
[20] = Secondary bone and marrow malignancies (patient at r66), without naltrexone
[21] = Secondary bone and marrow malignancies (patient at r76), without naltrexone
[22] = Secondary malignancies of bone and marrow, without naltrexone
[23] = Stenosis of the lumbar spinal canal, without naltrexone
[24] = Persistent pain syndrome, with naltrexone
[25] = Right lumboischialgia, with naltrexone
[26] = Right lumboischialgia, with naltrexone, first mention in the cell
[27] = Right lumboischialgia, with naltrexone, second mention in the cell
[28] = Secondary bone and marrow malignancies (patient at r66), with naltrexone
[29] = Spinal pain, 4 h, with naltrexone
[30] = Spinal pain, 6 h, with naltrexone

For `CN1CC[C@]23c4c5ccc(O)c4O[C@H]2[C@@H](O)C=C[C@H]3[C@H]1C5` [morphine], the pruritus ([1]; Algoneurodystrophy, 6-8 h, without naltrexone) was 6-8 h: pruritus (3), urinary, the pruritus ([1]; Algoneurodystrophy, 1 h, without naltrexone) was 1 h: pruritus (3) and the pruritus [1, 3] was 2 h: pruritus (3). For the same molecule, the vertigo ([1]; Back pain, 30 min, without naltrexone) was 30 min: vertigo (1), the nausea [1, 4] was 1 h: vertigo (1), nausea (1) and the vertigo [1, 4] was 1 h: vertigo (1), nausea (1). For the same molecule, the vertigo [1, 5] was 2 h: vertigo (2), vomiting (2), the vomiting [1, 5] was 2 h: vertigo (2), vomiting (2) and the nausea [1, 6] was 3. For the same molecule, the vertigo [1, 6] was 2, the vomiting [1, 6] was “vomiting (2)” and the pruritus ([1]; Back pain, 8 h, without naltrexone) was 8 h: pruritus (2). For the same molecule, the nausea [1, 7] was 24 h: nausea (2), vertigo (2), the vertigo [1, 7] was 24 h: nausea (2), vertigo (2) and the constipation [1, 8] was “constipation”. It also gave a nausea [1, 8] of 3, a nausea [1, 9] of 3 and a pruritus [1, 9] of 4. The drowsiness ([1]; Lumbago, 1 h, without naltrexone) was 1 h: drowsiness (1), the nausea [1, 10] was 4 h: nausea (2), vomiting (2) and the vomiting [1, 10] was 4 h: nausea (2), vomiting (2). The nausea [1, 11] was 3, the pruritus [1, 11] was 6 h: pruritus (3), urinary reten- and the vomiting [1, 11] was 2. The nausea [1, 12] was 3, the pruritus [1, 12] was “pruritus (3), urinary retention (3)” and the vomiting [1, 12] was 2. The constipation [1, 13] was “constipation”, the drowsiness [1, 13] was “drowsiness” and the nausea [1, 13] was “nausea”. For the same molecule, the oedema [1, 13] was “moderate”, the pruritus [1, 13] was “pruritus” and the nausea [1, 14] was “nausea (2),”. For the same molecule, the pruritus [1, 14] was 2, the sweating [1, 14] was “sweating (2), vertigo (2),” and the vertigo [1, 14] was “sweating (2), vertigo (2),”. The vomiting [1, 14] was 3, the nausea [1, 15] was “nausea” and the vomiting [1, 15] was “vomiting”. For the same molecule, the vomiting ([1]; Lumbosacral spondylitis without myelopathy, 6 h-8 h, without naltrexone) was 6 h-8 h: vomiting, the constipation [1, 16] was “constipation” and the loss of appetite [1, 16] was “loss of appetite”. For the same molecule, the nausea [1, 16] was “nausea”, the vertigo [1, 16] was “vertigo” and the vomiting ([1]; Nonspecific coccyx disorders, 4 h, without naltrexone) was 4 h: recurrent vomiting. The nausea [1, 17] was 6 h: vomiting (3), nausea (3), the vomiting [1, 17] was 6 h: vomiting (3), nausea (3) and the asthenia ([1]; Nonspecific coccyx disorders, 8 h, without naltrexone) was 8 h: asthenia. For the same molecule, the “side-effects (grade printed beside morphine)” value ([1]; Nonspecific coccyx disorders, time not given, without naltrexone) was “morphine (0)”, the nausea [1, 18] was “nausea” and the vertigo [1, 18] was “vertigo”. For the same molecule, the vomiting [1, 18] was 4, the nausea [1, 19] was 2 and the pruritus [1, 19] was 4. For the same molecule, the vomiting [1, 19] was “ing (2), urinary retention (2)”, the constipation [1, 20] was “constipation (3), drowsiness (3),” and the drowsiness [1, 20] was “constipation (3), drowsiness (3),”. For the same molecule, the constipation [1, 21] was “tion (1)”, the loss of appetite [1, 21] was “nausea (4), loss of appetite (4),” and the nausea [1, 21] was “nausea (4), loss of appetite (4),”. For the same molecule, the vertigo [1, 21] was 4, the vomiting [1, 21] was “vomiting” and the constipation [1, 22] was “constipation”. The pruritus [1, 22] was “pruritus (3)”, the headache [1, 23] was “headache” and the nausea [1, 23] was 4. The pruritus [1, 23] was 1, the sweating [1, 23] was “sweating” and the vomiting [1, 23] was “vomiting”. The Efficacy [2, 3] was 2 h: 30-40%, the Efficacy ([2]; Algoneurodystrophy, 8 h, without naltrexone) was 8 h: 80% and the Efficacy ([2]; Algoneurodystrophy, 14 h, without naltrexone) was 14 h: 70%. The Efficacy ([2]; Lumbosacral spondylitis without myelopathy, 2 h-24 h, without naltrexone) was 2 h-24 h: 80%, the Efficacy ([2]; Nonspecific coccyx disorders, without naltrexone) was “Efficacy <30%” and the Efficacy [2, 21] was “Efficacy: 100%”.

With `O=C1CC[C@@]2(O)[C@H]3Cc4ccc(O)c5c4[C@@]2(CCN3CC2CC2)[C@H]1O5` [naltrexone] the chest pain ([1]; Back pain, h 17.30, with naltrexone) was “chest pain”, the tachycardia ([1]; Back pain, h 18.30, with naltrexone) was “h 18.30: tachycardia” and the benefit ([1]; Diabetes mellitus type II, with naltrexone) was “benefit 100%”. For the same molecule, the drowsiness ([1]; Lumbago, 1 h, with naltrexone) was 1 h: drowsiness (1), the pruritus ([1]; Lumbago, 2 h, with naltrexone) was 2 h: pruritus (2) and the drowsiness ([1]; Lumbago, 4 h, with naltrexone) was 4 h: drowsiness (2), pruritus (2). The pruritus ([1]; Lumbago, 4 h, with naltrexone) was 4 h: drowsiness (2), pruritus (2), the drowsiness ([1]; Lumbago, 6 h, with naltrexone) was 1 and the pruritus ([1]; Lumbago, 6 h, with naltrexone) was 2. The constipation [1, 24] was “constipation”, the drowsiness [1, 24] was “drowsiness” and the nausea [1, 24] was “nausea”. The sweating [1, 24] was “sweating”, the vertigo [1, 24] was “vertigo” and the vomiting [1, 24] was “vomiting”. The side-effects ([1]; Persistent spinal pain syndrome of uncertain aetiology, with naltrexone) was “none”, the nausea [1, 25] was 2 and the vomiting [1, 25] was “vomiting (2), urinary”. The pruritus [1, 26] was 4, the urinary retention [1, 26] was 2 and the pruritus [1, 27] was 1. The urinary retention [1, 27] was “urinary retention (1)”, the constipation [1, 28] was “constipation (3), drowsiness” and the drowsiness [1, 28] was 3. For the same molecule, the urinary retention [1, 28] was “short-lived”, the “pruritus improved by” value ([1]; Secondary malignancies of bone and marrow, with naltrexone) was 90% and the numbness [1, 29] was 4 h: pruritus (1), numbness (1). The pruritus [1, 29] was 4 h: pruritus (1), numbness (1), the nausea [1, 30] was “nausea (1)” and the numbness [1, 30] was 6 h: pruritus (1), numbness (1),. For the same molecule, the pruritus [1, 30] was 6 h: pruritus (1), numbness (1),, the nausea ([1]; Spinal pain, 8 h, with naltrexone) was 8 h: nausea (1) and the nausea ([1]; Stenosis of the lumbar spinal canal, with naltrexone) was “nausea (1)”. For the same molecule, the Efficacy ([2]; Lumbago, 1 h, with naltrexone) was 1 h: 30-50%, the Efficacy ([2]; Lumbago, 4 h-8 h, with naltrexone) was 4 h-8 h: >50% and the Efficacy ([2]; Spinal pain, 1 h-8 h, at rest, with naltrexone) was 1 h-8 h: at rest 100%, under. The Efficacy ([2]; Spinal pain, 1 h-8 h, under strain, with naltrexone) was “strain 70%”.
